Experiment [1] concerns the target T1, Tyrosine-protein phosphatase non-receptor type 1 (Homo sapiens, UniProt P18031).
T1 sequence (P18031 whole entry): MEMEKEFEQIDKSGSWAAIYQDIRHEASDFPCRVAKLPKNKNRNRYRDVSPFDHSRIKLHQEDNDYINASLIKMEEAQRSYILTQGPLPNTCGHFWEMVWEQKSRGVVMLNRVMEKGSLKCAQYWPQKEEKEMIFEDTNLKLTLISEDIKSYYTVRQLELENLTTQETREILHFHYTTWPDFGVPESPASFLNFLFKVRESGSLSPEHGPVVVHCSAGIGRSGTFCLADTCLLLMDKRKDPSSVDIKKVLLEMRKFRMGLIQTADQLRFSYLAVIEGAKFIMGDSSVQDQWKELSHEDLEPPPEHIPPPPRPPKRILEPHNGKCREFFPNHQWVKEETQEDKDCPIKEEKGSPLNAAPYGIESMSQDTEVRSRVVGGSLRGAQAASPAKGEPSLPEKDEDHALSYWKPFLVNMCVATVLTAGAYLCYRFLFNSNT
As to the kind of experiment: Inhibitory activity against Protein tyrosine phosphatase 1B (PTP1B) over-expressed in intact Sf9 cell assay.

Experiment [2] has as its target T2, Receptor-type tyrosine-protein phosphatase C (Homo sapiens, UniProt P08575).
T2 sequence (P08575 whole entry): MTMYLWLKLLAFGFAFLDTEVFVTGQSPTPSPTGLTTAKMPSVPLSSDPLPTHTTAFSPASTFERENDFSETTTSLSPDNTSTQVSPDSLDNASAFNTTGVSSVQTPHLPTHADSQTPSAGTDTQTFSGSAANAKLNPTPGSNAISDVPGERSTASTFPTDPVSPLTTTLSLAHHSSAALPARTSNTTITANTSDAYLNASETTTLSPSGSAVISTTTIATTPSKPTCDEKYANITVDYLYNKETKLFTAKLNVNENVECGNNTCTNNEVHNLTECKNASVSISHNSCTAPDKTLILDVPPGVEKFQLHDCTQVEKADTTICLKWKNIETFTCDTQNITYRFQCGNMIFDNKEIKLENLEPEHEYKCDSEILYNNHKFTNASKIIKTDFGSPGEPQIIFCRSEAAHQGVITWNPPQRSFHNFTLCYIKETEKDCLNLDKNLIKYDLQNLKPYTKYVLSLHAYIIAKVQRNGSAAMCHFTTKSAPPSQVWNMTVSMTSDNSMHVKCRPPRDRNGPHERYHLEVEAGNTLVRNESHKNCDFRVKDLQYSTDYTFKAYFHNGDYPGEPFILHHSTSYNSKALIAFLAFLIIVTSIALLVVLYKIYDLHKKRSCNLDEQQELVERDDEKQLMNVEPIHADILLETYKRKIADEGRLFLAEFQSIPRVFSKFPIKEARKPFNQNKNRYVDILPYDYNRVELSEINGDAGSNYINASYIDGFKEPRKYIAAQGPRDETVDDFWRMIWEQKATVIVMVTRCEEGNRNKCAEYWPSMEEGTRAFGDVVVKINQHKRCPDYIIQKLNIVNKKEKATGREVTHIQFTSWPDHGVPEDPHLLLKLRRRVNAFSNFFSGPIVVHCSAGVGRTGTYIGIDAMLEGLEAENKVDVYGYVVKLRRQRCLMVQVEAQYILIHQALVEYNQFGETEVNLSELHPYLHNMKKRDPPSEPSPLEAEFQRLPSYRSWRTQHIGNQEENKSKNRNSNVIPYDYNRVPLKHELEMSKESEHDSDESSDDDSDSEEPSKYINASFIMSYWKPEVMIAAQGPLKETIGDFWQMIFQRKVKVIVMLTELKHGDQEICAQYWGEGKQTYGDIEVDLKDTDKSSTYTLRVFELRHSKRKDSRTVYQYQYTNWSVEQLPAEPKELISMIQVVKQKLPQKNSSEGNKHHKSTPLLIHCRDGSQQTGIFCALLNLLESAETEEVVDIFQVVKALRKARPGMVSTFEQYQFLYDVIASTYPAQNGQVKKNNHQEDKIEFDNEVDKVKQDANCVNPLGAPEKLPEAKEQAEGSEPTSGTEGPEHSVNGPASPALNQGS
The experiment is described as follows: Inhibitory activity against CD45 protein-tyrosine phosphatase.

Experiment [3] deals with T3, Tyrosine-protein phosphatase non-receptor type 2 (Homo sapiens, UniProt P17706).
T3 sequence (P17706 whole entry): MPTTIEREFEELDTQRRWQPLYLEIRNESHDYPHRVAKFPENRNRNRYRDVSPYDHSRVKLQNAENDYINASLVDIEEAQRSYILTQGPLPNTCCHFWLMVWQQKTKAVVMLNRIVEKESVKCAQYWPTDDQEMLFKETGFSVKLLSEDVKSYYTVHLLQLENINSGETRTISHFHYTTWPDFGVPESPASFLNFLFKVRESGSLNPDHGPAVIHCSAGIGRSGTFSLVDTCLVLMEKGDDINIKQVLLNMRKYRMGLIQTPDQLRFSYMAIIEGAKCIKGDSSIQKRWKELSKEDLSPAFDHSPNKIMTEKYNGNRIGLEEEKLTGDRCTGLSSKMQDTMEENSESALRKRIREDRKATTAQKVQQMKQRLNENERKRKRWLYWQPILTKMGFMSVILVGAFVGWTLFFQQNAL
As to the kind of experiment: Inhibitory activity against T cell protein tyrosine phosphatase. In kind it is cell-based.

Experiment [4] addresses T1, Tyrosine-protein phosphatase non-receptor type 1. The experiment is described as follows: Inhibitory activity against protein tyrosine phosphatase 1B (PTP1B) was determined in fluorescein diphosphate (FDP) assay.

What is called IC50 is the concentration that inhibits the measured activity by half. Low values mean inhibition by little substance, high ones a need for much substance.

With `O=P(O)(O)C(F)(F)c1ccc(CC(Cc2ccc(C(F)(F)P(=O)(O)O)cc2)(c2nc(-c3ccccc3)cs2)n2nnc3ccccc32)cc1`, the IC50 in experiment [1] came out at 190 nM; in experiment [2], 50000 nM; in experiment [3], 18 nM; in experiment [4], 19 nM.

For the compound `O=P(O)(O)C(F)(F)c1ccc(CC(CCCc2ccccc2)(c2ccccc2)n2nnc3ccccc32)cc1` (stereo unspecified), the IC50 in experiment [1] was determined as 650 nM; in experiment [2] it was 30000 nM; in experiment [3], 72 nM; in experiment [4], 46 nM.

Turning to `O=P(O)(O)C(F)(F)c1ccc(CC(Cc2ccc(C(F)(F)P(=O)(O)O)cc2)(c2nc3ccccc3s2)n2nnc3ccccc32)cc1`, the half-inhibitory concentration (IC50) was 88 nM in experiment [1], 11000 nM in experiment [2], 20 nM in experiment [3] and 18 nM in experiment [4].

As to `O=P(O)(O)C(F)(F)c1ccc(CC(c2ccccc2)n2nnc3ccccc32)cc1` (stereo unspecified), the half-inhibitory concentration (IC50) in experiment [2] was greater than 50000 nM; in experiment [3], 7260 nM; in experiment [4], 8040 nM.

`O=P(O)(O)c1cccc(-c2ccc(CC(Cc3ccc(C(F)(F)P(=O)(O)O)cc3)(c3ccccc3)n3nnc4ccccc43)cc2)c1` (stereo unspecified) registered an IC50 in experiment [2] of 50000 nM.

Consider `O=P(O)(O)C(F)(F)c1ccc(CC(Cc2ccc(C(F)(F)P(=O)(O)O)cc2)(c2ccc(F)c(F)c2)n2nnc3ccccc32)cc1`, for which the IC50 came out at 50000 nM in experiment [2] and 8 nM in experiment [3].

For `COC(CC(C)C)c1ccc2cc(-c3ccc(CC(Cc4ccc(C(F)(F)P(=O)(O)O)cc4)(c4ccccc4)n4nnc5ccccc54)cc3)cc(P(=O)(O)O)c2n1` (stereo in doubt; 21b), the IC50 came to 50000 nM in experiment [2] and 41 nM in experiment [3].

As to `NS(=O)(=O)c1ccccc1-c1ccc(CC(Cc2ccc(C(F)(F)P(=O)(O)O)cc2)(c2ccccc2)n2nnc3ccccc32)cc1` (stereo unspecified), the IC50 amounted to 930 nM in experiment [1], 50000 nM in experiment [2], 82 nM in experiment [3] and 69 nM in experiment [4].

`O=P(O)(O)C(F)(F)c1ccc(CC(Cc2ccc(Br)cc2)(c2ccccc2)n2nnc3ccccc32)cc1` (stereo unspecified): the IC50 in experiment [1] amounted to 1600 nM; in experiment [2] it was 17000 nM; in experiment [3], 92 nM; in experiment [4], 89 nM.

`COC(CC(C)C)c1ccc2cc(-c3ccc(CC(Cc4ccc(C(F)(F)P(=O)(O)O)cc4)(c4ccccc4)n4nnc5ccccc54)cc3)cc(P(=O)(O)O)c2n1` (stereo in doubt; 21a) came in with an IC50 in experiment [2] of 50000 nM.

On to `O=P(O)(O)C(F)(F)c1ccc(CC(Cc2ccc(C(F)(F)P(=O)(O)O)cc2)(c2ccccc2)n2nnc3ccccc32)cc1`, for which the IC50 in experiment [1] was 120 nM; in experiment [2], 50000 nM; in experiment [3], 10 nM.

In the case of `O=P(O)(O)C(F)(F)c1ccc(CC(Cc2ccc(-c3ccccc3)cc2)(c2ccccc2)n2nnc3ccccc32)cc1` (stereo unspecified), the concentration for half-maximal inhibition (IC50) is 1600 nM in experiment [1] and 69000 nM in experiment [2].

Consider `O=P(O)(O)C(F)(F)c1ccc(CC(Cc2ccc(OCc3ccccc3)cc2)(c2ccccc2)n2nnc3ccccc32)cc1` (stereo unspecified), for which the IC50 was determined as 4070 nM in experiment [1], 64000 nM in experiment [2], 62 nM in experiment [3] and 98 nM in experiment [4].

Turning to `O=P(O)(O)C(F)(F)c1ccc(CC(C/C=C/c2ccccc2)(c2ccccc2)n2nnc3ccccc32)cc1` (stereo unspecified), the IC50 in experiment [1] worked out at 460 nM; in experiment [2], 50000 nM; in experiment [3], 49 nM; in experiment [4], 49 nM.

Consider `COC(CC(C)C)c1ccc2cc(-c3ccc(CC(Cc4ccc(C(F)(F)P(=O)(O)O)cc4)(c4ccccc4)n4nnc5ccccc54)cc3)cc(P(=O)(O)O)c2n1` (stereo in doubt; 21d), for which the IC50 in experiment [2] was 32000 nM; in experiment [3], 930 nM.

As for `O=P(O)(O)C(F)(F)c1ccc(CC(Cc2ccc(-c3ccccc3-c3nn[nH]n3)cc2)(c2ccccc2)n2nnc3ccccc32)cc1` (stereo unspecified), the 50% inhibitory concentration (IC50) came out at 370 nM in experiment [1], 50000 nM in experiment [2], 85 nM in experiment [3] and 74 nM in experiment [4].

Consider `Cc1ccc2cc(-c3ccc(CC(Cc4ccc(C(F)(F)P(=O)(O)O)cc4)(c4ccccc4)n4nnc5ccccc54)cc3)cc(P(=O)(O)O)c2n1` (stereo unspecified), for which the IC50 in experiment [1] amounted to 220 nM; in experiment [2], 50000 nM.

For `COC(CC(C)C)c1ccc2cc(-c3ccc(CC(Cc4ccc(C(F)(F)P(=O)(O)O)cc4)(c4ccccc4)n4nnc5ccccc54)cc3)cc(P(=O)(O)O)c2n1` (stereo in doubt; 21c), the IC50 came to 50000 nM in experiment [2] and 1130 nM in experiment [3].

Consider `O=P(O)(O)C(F)(F)c1ccc(CC(Cc2ccc(C(F)(F)P(=O)(O)O)c(Br)c2)(c2ccccc2)n2nnc3ccccc32)cc1` (stereo unspecified), for which the half-maximal inhibitory concentration (IC50) turned out to be 160 nM in experiment [1], 25000 nM in experiment [2], 4 nM in experiment [3] and 5 nM in experiment [4].

In the case of `O=C(OCc1ccccc1)C(Cc1ccc(C(F)(F)P(=O)(O)O)cc1)(c1ccccc1)n1nnc2ccccc21` (stereo unspecified), the IC50 in experiment [1] stood at 1700 nM; in experiment [2] it was 50000 nM; in experiment [3] it was 290 nM; in experiment [4], 240 nM.

Consider `O=P(O)(O)C(F)(F)c1ccc(CC(Cc2ccc(C(F)(F)P(=O)(O)O)cc2)(c2nnn[nH]2)n2nnc3ccccc32)cc1`, for which the IC50 in experiment [1] was determined as 1200 nM; in experiment [2], 7200 nM; in experiment [3] it was 16 nM; in experiment [4], 32 nM.

Regarding `COC(=O)c1ccc(C(Cc2ccc(C(F)(F)P(=O)(O)O)cc2)(Cc2ccc(C(F)(F)P(=O)(O)O)cc2)n2nnc3ccccc32)cc1`, the IC50 was 84 nM in experiment [1], 50000 nM in experiment [2], 16 nM in experiment [3] and 11 nM in experiment [4].

As for `O=P(O)(O)C(F)(F)c1ccc(CC(Cc2ccc(C(F)(F)P(=O)(O)O)cc2)(c2ccc3ccccc3n2)n2nnc3ccccc32)cc1`, the IC50 was determined as 62 nM in experiment [1], 50000 nM in experiment [2], 28 nM in experiment [3] and 20 nM in experiment [4].

Turning to `O=P(O)(O)C(F)(F)c1ccc(/C=C/CC(Cc2ccc(C(F)(F)P(=O)(O)O)cc2)(c2ccccc2)n2nnc3ccccc32)cc1` (stereo unspecified), the IC50 was 120 nM in experiment [1], 50000 nM in experiment [2], 10 nM in experiment [3] and 16 nM in experiment [4].

The record behind these values is ChEMBL document CHEMBL1146670, “Structure based design of a series of potent and selective non peptidic PTP-1B inhibitors” (Bioorg Med Chem Lett, 2004).
